Here are results for 33 compounds from patent US7691855B2, “Phenyl-[4-(3-phenyl-1h-pyrazol-4-yl)-pyrimidin-2-yl)-amine derivatives” (Novartis AG, priority 2002, dated 2010).

SMILES strings stand for the structures.

On to `Cc1ccc(-c2c(-c3ccnc(Nc4ccc(CN5CCN(C)CC5)cc4)n3)cnn2C2CCN(C)CC2)cc1` [Example 84, [4-(4-Methyl-piperazin-1-ylmethyl)-phenyl]-{4-[1-(1-methyl-piperidin-4-yl)-5-p-tolyl-1H-pyrazol-4-yl]-pyrimidin-2-yl}-amine], for which the melting point is 187 °C. In turn, `CN1CCC(n2cc(-c3ccnc(Nc4ccc(CN5CCN(C)CC5)cc4)n3)c(-c3ccc(Cl)cc3)n2)CC1` [Example 80, {4-[3-(4-Chloro-phenyl)-1-(1-methyl-piperidin-4-yl)-1H-pyrazol-4yl]-pyrimidin-2-yl}-[4-(4-methyl-piperazin-1-yl-methyl)-phenyl]-amine] showed a melting point of 164 °C. For `Cc1ccc(-c2c(-c3ccnc(Nc4ccc(CN5CCN(C)CC5)cc4)n3)cnn2CCN(C)C)cc1` [Example 82, {4-[1-(2-Dimethylamino-ethyl)-5-p-tolyl-1H-pyrazol-4-yl]-pyrimidin-2-yl}-[4-(4 methyl-piperazin-1-ylmethyl)-phenyl]-amine] the value was 123 °C; for `Cc1ccc(-c2nn(C3CCN(C)CC3)cc2-c2ccnc(Nc3ccc(CN4CCN(C)CC4)cc3)n2)cc1` [Example 85, [4-(4-Methyl-piperazin-1-ylmethyl)-phenyl]-{4-[1-(1-methyl-piperidin-4-yl)-3-p-tolyl-1H-pyrazol-4-yl]-pyrimidin-2-yl}-amine], 174 °C; for `COc1cc(Nc2nccc(-c3c[nH]nc3-c3cccc(C)c3C)n2)cc(OC)c1OC` [Example 51, {4-[3-(2,3-Dimethyl-phenyl)-1H-pyrazol-4-yl]-pyrimidin-2-yl}-(3,4,5-trimethoxy-phenyl)-amine], 249 °C. As for `COc1cccc(Nc2nccc(-c3cnn(CC4CCN(C)CC4)c3-c3ccc(Cl)cc3)n2)c1` [Example 108, {4-[5-(4-Chloro-phenyl)-1-(1-methyl-piperidin-4-ylmethyl)-1H-pyrazol-4-yl]-pyrimidin-2-yl}-(3-methoxy-phenyl)-amine], the melting point was determined as 180 °C. Then `COc1ccc(Nc2nccc(-c3cn(C)nc3-c3ccc(Cl)cc3Cl)n2)cc1OC` [Example 57, {4-[3-(2,4Dichloro-phenyl)-1-methyl-1H-pyrazol-4-yl]-pyrimidin-2-yl}-(3,4-dimethoxy-phenyl)-amine], with 180 °C. For `Cc1ccc(-c2nn(C)cc2-c2ccnc(Nc3ccc(CN4CCN(C)CC4)cc3)n2)cc1` [Example 66, [4-(4-Methyl-piperazin-1-ylmethyl)-phenyl]-[4-(1-methyl-3-p-tolyl-1H-pyrazol-4-yl)-pyrimidin-2-yl]-amine] the value was 151 °C; for `Cc1ccc(-c2c(-c3ccnc(Nc4ccc(N5CCN(C)CC5)cc4)n3)cnn2C)cc1` [Example 63, [4-(4-Methyl-piperazin-1-yl)-phenyl]-[4-(1-methyl-5-p-tolyl-1H-pyrazol-4-yl)-pyrimidin-2-yl]-amine], 261 °C; for `COc1cc(Nc2nccc(-c3c[nH]nc3-c3ccc(Cl)cc3)n2)cc(OC)c1OC` [Example 67, {4-[3-(4-Chloro-phenyl)-1H-pyrazol-4-yl]-pyrimidin-2-yl}-(3,4,5-trimethoxy-phenyl)-amine], 271 °C.

`CC1(C)CC(NCc2ccc(Nc3nccc(-c4c[nH]nc4-c4ccccc4)n3)cc2)CC(C)(C)N1` [Example 120, [4(3-Phenyl-1H-pyrazol-4-yl)-pyrimidin-2-yl]-{4[(2,2,6,6-tetramethyl-piperidin-4-ylamino)-methyl]-phenyl}-amine] came in with a melting point of 213 °C. `Cc1ccc(-c2n[nH]cc2-c2ccnc(Nc3ccc(C(=O)O)cc3)n2)cc1` [Example 58, 4-[4-(3-p-Tolyl-1H-pyrazol-4-yl)-pyrimidin-2-ylamino]-benzoic acid] returned a melting point of 341 °C. Then `COc1ccc(Nc2nccc(-c3cnn(C)c3-c3ccc(Cl)cc3Cl)n2)cc1OC` [Example 56, {4-[5-(2,4-Dichloro-phenyl)-1-methyl-1H-pyrazol-4-yl]-pyrimidin-2-yl}-(3,4-dimethoxy-phenyl)-amine], with 157 °C; and `CN(C)CCn1ncc(-c2ccnc(Nc3ccc(CN4CCN(C)CC4)cc3)n2)c1-c1ccc(Cl)cc1` [Example 77, {4-[5-(4-Chloro-phenyl)-1-(2-dimethylamino-ethyl)-1H-pyrazol-4yl]-pyrimidin-2-yl}-[4-(4-methyl-piperazin-1-ylmethyl)-phenyl]-amine], with 159 °C; and `CN1CCC(COc2cccc(Nc3nccc(-c4cn(C)nc4-c4ccc(Cl)cc4)n3)c2)CC1` [Example 112, {4-[3-(4-Chloro-phenyl)-1-methyl-1H-pyrazol-4-yl]-pyrimidin-2-yl}-[3-(1-methyl-piperidin-4-ylmethoxy)-phenyl]-amine], with 138 °C. Compound `CCN1CCN(Cc2ccc(Nc3nccc(-c4c[nH]nc4-c4ccc(Cl)cc4)n3)cc2)CC1` [Example 114, {4-[3-(4-Chloro-phenyl)-1H-pyrazol-4yl]-pyrimidin-2-yl}-[4-(4-ethyl-piperazin-1-ylmethyl)-phenyl]-amine] yielded a melting point of 247 °C. With `CN1CCN(Cc2ccc(Nc3nccc(-c4c[nH]nc4-c4cccc(C(F)(F)F)c4)n3)cc2)CC1` [Example 110, [4-(4-Methyl-piperazin-1-ylmethyl)-phenyl]-{4-[3-(3-trifluoromethyl-phenyl)-1H-pyrazol-4yl]-pyrimidin-2-yl}-amine], the melting point was found to be 221 °C. `COc1ccc(Nc2nccc(-c3cnn(CCN(C)C)c3-c3ccc(Cl)cc3)n2)cc1OC` [Example 73, {4-[5-(4-Chloro-phenyl)-1-(2-dimethylamino-ethyl)-1H-pyrazol-4-yl]-pyrimidin-2-yl}-(3,4-dimethoxy-phenyl)-amine] registered a melting point of 157 °C.

On to `Cc1ccc(-c2c(-c3ccnc(Nc4ccc(N5CCN(C)CC5)cc4)n3)cnn2CCN(C)C)cc1` [Example 54, {4-[1-(2-Dimethylamino-ethyl)-5-p-tolyl-1H-pyrazol-4-yl]-pyrimidin-2-yl}-[4-(4-methyl-piperazin-1-yl)-phenyl]-amine], for which the melting point was determined as 184 °C. For `COc1cc(Nc2nccc(-c3c[nH]nc3-c3ccccc3Cl)n2)cc(OC)c1OC` [Example 53, {4-[3-(2-Chloro-phenyl)-1H-pyrazol-4-yl]-pyrimidin-2-yl}-(3,4,5-trimethoxy-phenyl)-amine] the value was 257.5 °C; for `CN1CCN(Cc2ccc(Nc3nccc(-c4cn(C)nc4-c4ccc(Cl)cc4)n3)cc2)CC1` [Example 78, {4-[3-(4-Chloro-phenyl)-1-methyl-1H-pyrazol-4yl]-pyrimidin-2-yl}-[4-(4-methyl-piperazin-1-ylmethyl)-phenyl]-amine], 166 °C. For `COc1cccc(Nc2nccc(-c3c[nH]nc3-c3ccc(Cl)cc3)n2)c1` [Example 69, {4-[3-(4-Chloro-phenyl)-1H-pyrazol-4-yl]-pyrimidin-2-yl}-(3-methoxy-phenyl)-amine], the melting point is 261 °C. For `Clc1ccc(-c2n[nH]cc2-c2ccnc(Nc3ccc(N4CCNCC4)cc3)n2)cc1` [Example 122, {4-[3-(4-Chloro-phenyl)-1H-pyrazol-4yl]-pyrimidin-2-yl}-(4piperazin-1-yl-phenyl)-amine] the value was 214 °C; for `CCN1CCN(Cc2ccc(Nc3nccc(-c4c[nH]nc4-c4ccccc4)n3)cc2)CC1` [Example 115, [4-(4-Ethyl-piperazin-1-ylmethyl)-phenyl]-[4-(3-phenyl-1H-pyrazol-4-yl)-pyrimidin-2-yl]-amine], 227 °C. Turning to `CN1CCN(c2ccc(Nc3nccc(-c4c[nH]nc4-c4ccccc4Cl)n3)cc2)CC1` [Example 52, {4-[3-(2-Chloro-phenyl)-1H-pyrazol-4-yl]-pyrimidin-2-yl}-[4-(4-methyl-piperazin-1-yl)-phenyl]-amine], the melting point worked out at 310 °C. Then `Cc1ccc(-c2nn(CCN(C)C)cc2-c2ccnc(Nc3ccc(CN4CCN(C)CC4)cc3)n2)cc1` [Example 83, {4-[1-(2-Dimethylamino-ethyl)-3-p-tolyl-1H-pyrazol-4-yl]-pyrimidin-2-yl}-[4-(4-methyl-piperazin-1-ylmethyl)-phenyl]-amine], with 62 °C. For `COc1cccc(Nc2nccc(-c3cnn(CCN(C)C)c3-c3ccc(Cl)cc3)n2)c1` [Example 75, {-4-[5-(4Chloro-phenyl)-1-(2-dimethylamino-ethyl)-1H-pyrazol-4-yl]-pyrimidin-2-yl}-(3-methoxy-phenyl)-amine] the value was 118 °C. Then `Cc1ccc(-c2c(-c3ccnc(Nc4ccc(CN5CCN(C)CC5)cc4)n3)cnn2C)cc1` [Example 65, [4-(4-Methyl-piperazin-1-ylmethyl)-phenyl]-[4(1-methyl-5-p-tolyl-1H-pyrazol-4-yl)-pyrimidin-2-yl]-amine], with 192 °C; and `COc1cc(Nc2nccc(-c3cn(CCN(C)C)nc3-c3ccc(Cl)cc3)n2)cc(OC)c1OC` [Example 70, {4-[3-(4-Chloro-phenyl)-1-(2-dimethylamino-ethyl)-1H-pyrazol-4-yl]-pyrimidin-2-yl}-(3,4,5-trimethoxy-phenyl)-amine], with 150 °C; and `CCN1CCN(c2ccc(Nc3nccc(-c4c[nH]nc4-c4ccc(Cl)cc4)n3)cc2)CC1` [Example 121, {4-[3-(4-Chloro-phenyl)-1H-pyrazol-4yl]-pyrimidin-2-yl}-[4-(4-ethyl-piperazin-1-yl)-phenyl]-amine], with 268 °C. In the case of `Cc1ccc(-c2n[nH]cc2-c2ccnc(Nc3ccc(CN4CCN(CCO)CC4)cc3)n2)cc1` [Example 111, 2-(4-{4-[4-(3-p-Tolyl-1H-pyrazol-4yl)-pyrimidin-2-ylamino]-benzyl}piperazin-1-yl)-ethanol], the melting point was 233 °C. For `COc1cc(Nc2nccc(-c3cnn(CCN(C)C)c3-c3ccc(Cl)cc3)n2)cc(OC)c1OC` [Example 71, {4-[5-(4-Chloro-phenyl)-1-(2-dimethylamino-ethyl)-1H-pyrazol-4-yl]-pyrimidin-2-yl}-(3,4,5-trimethoxy-phenyl)-amine] the value was 153 °C; for `COc1cc(OC)cc(-c2n[nH]cc2-c2ccnc(Nc3cccc(S(N)(=O)=O)c3)n2)c1` [Example 113, 3-{4-[3-(3,5-Dimethoxy-phenyl)-1H-pyrazol-4-yl]-pyrimidin-2-ylamino}-benzenesulfonamide], 257 °C.
